The data set can be described thus: API solubility in water. Format: physicochemical.

Molecules are shown by their SMILES. Converted amounts (≈) assume the structure as drawn.

With `COC[C@H](NC(=O)c1cnc(C)s1)C(=O)N[C@@H](COC)C(=O)N[C@@H](Cc1ccccc1)C(=O)[C@@]1(C)CO1` [API, Oprozomib], the solubility is about 500 µg/mL (≈ 939 µM).

The values above are taken from US9295708B2, “Modified release formulations for oprozomib” (Onyx Therapeutics, Inc., priority 2012, dated 2016).
